The source of these data is ChEMBL document CHEMBL5696441 (Nat Chem Biol, 2011).

For assay [1], the target named is RAC-gamma serine/threonine-protein kinase (Homo sapiens) (UniProt Q9Y243). The experiment in a line: Inhibition of human AKT3 assessed as residual activity at 1 uM using RBER-GSK3(14-27) as substrate in presence of 33P-ATP by ProQinase assay relative to control.
Assay [2] deals with T1, Megakaryocyte-associated tyrosine-protein kinase (Homo sapiens) (UniProt P42679).
T1 sequence (whole entry): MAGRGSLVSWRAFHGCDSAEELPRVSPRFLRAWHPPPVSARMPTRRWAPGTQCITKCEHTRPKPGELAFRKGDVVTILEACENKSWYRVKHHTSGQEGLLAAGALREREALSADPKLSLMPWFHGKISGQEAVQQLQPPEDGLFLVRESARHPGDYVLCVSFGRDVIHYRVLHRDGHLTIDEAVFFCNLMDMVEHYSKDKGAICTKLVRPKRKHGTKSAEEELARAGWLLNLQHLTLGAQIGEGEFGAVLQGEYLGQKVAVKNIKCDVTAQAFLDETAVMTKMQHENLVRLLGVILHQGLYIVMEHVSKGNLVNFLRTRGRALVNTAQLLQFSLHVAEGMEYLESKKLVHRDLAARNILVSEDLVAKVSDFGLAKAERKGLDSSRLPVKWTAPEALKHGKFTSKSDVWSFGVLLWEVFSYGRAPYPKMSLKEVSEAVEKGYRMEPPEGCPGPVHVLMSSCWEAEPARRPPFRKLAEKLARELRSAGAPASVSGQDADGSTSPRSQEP
The experiment in a line: Inhibition of human MATK assessed as residual activity at 1 uM using polyEy as substrate in presence of 33P-ATP by ProQinase assay relative to control.

Assay [3] concerns the target Serine/threonine-protein kinase PAK 3 (Homo sapiens) (UniProt O75914). Kind of assay: Inhibition of human PAK3 assessed as residual activity at 1 uM using bio-4xCHKT as substrate in presence of 33P-ATP by ProQinase assay relative to control.
The target of assay [4] is ALK tyrosine kinase receptor (Homo sapiens) (UniProt Q9UM73). Kind of assay: Inhibition of ALK (unknown origin) assessed as remaining activity at 1 uM by Kinome scan method relative to control.
The nature of assay [5]: Anti-inflammatory activity against human derived medium respond PBMC cells assessed as inhibition in stimulated IL-5 cytokine release incubated for 2 hrs in the presence of LPS/SEB/aCD28 by Luminex based sandwich immunoassay. Format: functional, cell-based.
Assay [6] deals with Tyrosine-protein kinase BTK (Homo sapiens) (UniProt Q06187). Kind of assay: Inhibition of BTK (unknown origin) assessed as remaining activity at 1 uM by Kinome scan method relative to control.
Assay [7] has as its target Cyclin-dependent kinase 5/CDK5 activator 1 (Homo sapiens) (UniProt Q00535+Q15078). The experiment in a line: Inhibition of human CDK5/p35NCK assessed as residual activity at 1 uM using RBER-CHKtide as substrate in presence of 33P-ATP by ProQinase assay relative to control. It counts as protein-complex assay.
Assay [8] has as its target Mitogen-activated protein kinase 9 (Homo sapiens) (UniProt P45984). Kind of assay: Inhibition of human JNK2 assessed as residual activity at 1 uM using ATF2 as substrate in presence of 33P-ATP by ProQinase assay relative to control.
Assay [9] has as its target Calcium/calmodulin-dependent protein kinase type II subunit alpha (Homo sapiens) (UniProt Q9UQM7). Kind of assay: Inhibition of human CAMK2A assessed as residual activity at 1 uM using RBER-CHKtide as substrate in presence of 33P-ATP by ProQinase assay relative to control.
Assay [10] deals with Tyrosine-protein kinase SYK (Homo sapiens) (UniProt P43405). Kind of assay: Inhibition of SYK (unknown origin) assessed as remaining activity at 1 uM by Kinome scan method relative to control.
The target in assay [11] is T2, Mitogen-activated protein kinase 12 (Homo sapiens) (UniProt P53778).
T2 sequence (whole entry): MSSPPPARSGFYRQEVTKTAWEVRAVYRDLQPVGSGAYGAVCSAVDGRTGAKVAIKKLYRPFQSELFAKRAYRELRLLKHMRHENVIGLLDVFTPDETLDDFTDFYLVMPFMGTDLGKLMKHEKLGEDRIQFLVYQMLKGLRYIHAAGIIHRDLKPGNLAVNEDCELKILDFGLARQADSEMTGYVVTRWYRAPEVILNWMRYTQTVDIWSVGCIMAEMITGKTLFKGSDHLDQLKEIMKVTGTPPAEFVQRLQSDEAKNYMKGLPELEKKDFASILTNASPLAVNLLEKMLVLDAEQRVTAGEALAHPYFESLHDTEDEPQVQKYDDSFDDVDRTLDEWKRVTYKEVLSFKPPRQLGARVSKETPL
The experiment in a line: Inhibition of human P38gamma assessed as residual activity at 1 uM using RBER-IRStide as substrate in presence of 33P-ATP by ProQinase assay relative to control.

Assay [12] is described as follows: Anti-inflammatory activity against human derived high respond PBMC cells assessed as inhibition in stimulated IL-10 cytokine release incubated for 2 hrs in the presence of LPS/SEB/aCD28 by Luminex based sandwich immunoassay. It counts as functional, cell-based.
In assay [13] the target is Activin receptor type-1 (Homo sapiens) (UniProt Q04771). Kind of assay: Inhibition of ACVR1 (unknown origin) assessed as remaining activity at 1 uM by Kinome scan method relative to control.
Activin receptor type-1 (Homo sapiens), sequence (Q04771 whole entry): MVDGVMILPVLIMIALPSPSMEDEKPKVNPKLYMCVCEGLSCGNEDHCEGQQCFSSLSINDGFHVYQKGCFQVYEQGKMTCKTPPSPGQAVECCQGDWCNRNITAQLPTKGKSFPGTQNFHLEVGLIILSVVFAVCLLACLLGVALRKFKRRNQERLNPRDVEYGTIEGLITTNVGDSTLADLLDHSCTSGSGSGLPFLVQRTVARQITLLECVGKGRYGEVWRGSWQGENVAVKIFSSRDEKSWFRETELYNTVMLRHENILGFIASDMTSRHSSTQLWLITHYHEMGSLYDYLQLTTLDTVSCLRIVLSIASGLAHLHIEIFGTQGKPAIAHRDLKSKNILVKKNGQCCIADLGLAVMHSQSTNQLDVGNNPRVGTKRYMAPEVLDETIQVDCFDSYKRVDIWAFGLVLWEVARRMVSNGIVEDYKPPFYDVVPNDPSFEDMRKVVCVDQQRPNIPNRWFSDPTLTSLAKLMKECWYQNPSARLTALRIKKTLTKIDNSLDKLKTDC

ALK tyrosine kinase receptor (Homo sapiens), sequence (Q9UM73 19-1620 limits assumed): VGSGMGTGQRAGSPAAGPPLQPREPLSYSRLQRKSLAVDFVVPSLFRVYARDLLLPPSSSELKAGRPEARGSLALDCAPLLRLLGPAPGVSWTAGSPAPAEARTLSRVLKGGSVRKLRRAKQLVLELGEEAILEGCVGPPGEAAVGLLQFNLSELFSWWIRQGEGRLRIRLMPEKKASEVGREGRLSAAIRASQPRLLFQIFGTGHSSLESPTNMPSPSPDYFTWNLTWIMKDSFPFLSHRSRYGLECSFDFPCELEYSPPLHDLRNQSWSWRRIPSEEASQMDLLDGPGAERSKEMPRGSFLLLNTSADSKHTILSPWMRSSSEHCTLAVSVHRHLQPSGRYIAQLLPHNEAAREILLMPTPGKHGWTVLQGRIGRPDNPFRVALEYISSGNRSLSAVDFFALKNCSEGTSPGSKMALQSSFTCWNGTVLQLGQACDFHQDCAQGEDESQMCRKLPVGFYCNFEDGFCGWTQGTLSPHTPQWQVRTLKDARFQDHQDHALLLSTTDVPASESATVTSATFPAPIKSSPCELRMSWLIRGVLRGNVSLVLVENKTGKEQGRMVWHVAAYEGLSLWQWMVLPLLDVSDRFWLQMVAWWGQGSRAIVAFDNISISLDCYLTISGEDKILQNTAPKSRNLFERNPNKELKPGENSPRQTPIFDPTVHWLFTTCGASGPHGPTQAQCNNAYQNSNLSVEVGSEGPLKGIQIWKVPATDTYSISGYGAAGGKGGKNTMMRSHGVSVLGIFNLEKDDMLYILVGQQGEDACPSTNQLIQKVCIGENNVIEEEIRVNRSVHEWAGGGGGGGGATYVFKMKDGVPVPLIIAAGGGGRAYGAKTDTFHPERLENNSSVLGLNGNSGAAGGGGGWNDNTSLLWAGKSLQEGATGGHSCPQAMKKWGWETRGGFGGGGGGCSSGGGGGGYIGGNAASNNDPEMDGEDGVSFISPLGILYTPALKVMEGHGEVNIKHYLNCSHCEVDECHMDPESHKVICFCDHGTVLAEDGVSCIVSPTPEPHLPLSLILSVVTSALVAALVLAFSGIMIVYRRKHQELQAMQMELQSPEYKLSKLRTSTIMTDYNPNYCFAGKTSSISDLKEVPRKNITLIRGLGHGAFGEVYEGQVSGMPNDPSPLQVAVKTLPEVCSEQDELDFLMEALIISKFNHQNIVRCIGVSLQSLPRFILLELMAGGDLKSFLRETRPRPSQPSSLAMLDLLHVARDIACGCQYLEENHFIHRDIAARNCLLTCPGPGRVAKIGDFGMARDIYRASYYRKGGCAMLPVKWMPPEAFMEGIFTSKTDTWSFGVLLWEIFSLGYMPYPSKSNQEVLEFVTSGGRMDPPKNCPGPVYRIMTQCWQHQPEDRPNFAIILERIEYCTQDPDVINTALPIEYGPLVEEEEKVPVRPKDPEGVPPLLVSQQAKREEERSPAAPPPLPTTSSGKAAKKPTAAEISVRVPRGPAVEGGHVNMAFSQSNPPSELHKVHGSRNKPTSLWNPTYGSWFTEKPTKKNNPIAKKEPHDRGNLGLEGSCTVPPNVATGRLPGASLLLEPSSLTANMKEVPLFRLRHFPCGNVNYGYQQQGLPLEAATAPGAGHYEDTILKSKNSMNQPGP
RAC-gamma serine/threonine-protein kinase (Homo sapiens), sequence (Q9Y243 whole entry): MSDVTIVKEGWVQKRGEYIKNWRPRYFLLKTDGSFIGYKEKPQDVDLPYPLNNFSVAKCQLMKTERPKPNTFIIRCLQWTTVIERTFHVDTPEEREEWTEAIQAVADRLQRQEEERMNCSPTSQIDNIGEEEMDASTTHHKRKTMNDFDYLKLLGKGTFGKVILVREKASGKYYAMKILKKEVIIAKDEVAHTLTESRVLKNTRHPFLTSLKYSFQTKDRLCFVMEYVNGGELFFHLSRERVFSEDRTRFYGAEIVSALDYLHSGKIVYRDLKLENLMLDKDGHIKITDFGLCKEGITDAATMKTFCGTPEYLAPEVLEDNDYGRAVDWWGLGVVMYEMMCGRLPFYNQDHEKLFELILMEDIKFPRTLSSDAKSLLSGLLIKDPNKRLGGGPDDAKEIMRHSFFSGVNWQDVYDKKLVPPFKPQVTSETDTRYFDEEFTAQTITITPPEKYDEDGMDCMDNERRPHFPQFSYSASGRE
Cyclin-dependent kinase 5/CDK5 activator 1 (Homo sapiens), sequence (Q00535 whole entry): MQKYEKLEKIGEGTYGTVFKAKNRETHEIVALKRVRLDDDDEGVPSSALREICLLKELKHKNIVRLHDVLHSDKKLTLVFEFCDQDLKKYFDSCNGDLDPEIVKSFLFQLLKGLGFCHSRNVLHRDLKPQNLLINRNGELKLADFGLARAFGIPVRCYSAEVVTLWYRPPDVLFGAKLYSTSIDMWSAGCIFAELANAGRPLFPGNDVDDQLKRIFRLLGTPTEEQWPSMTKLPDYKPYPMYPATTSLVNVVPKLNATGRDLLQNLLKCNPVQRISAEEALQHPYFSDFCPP
Cyclin-dependent kinase 5/CDK5 activator 1 (Homo sapiens), sequence (Q15078 99-307 partner limits assumed): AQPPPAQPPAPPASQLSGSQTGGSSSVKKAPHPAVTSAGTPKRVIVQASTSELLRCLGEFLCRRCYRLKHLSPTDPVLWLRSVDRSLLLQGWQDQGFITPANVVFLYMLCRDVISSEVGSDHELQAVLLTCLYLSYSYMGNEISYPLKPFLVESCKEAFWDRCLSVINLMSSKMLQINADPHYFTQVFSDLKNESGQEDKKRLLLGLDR
Mitogen-activated protein kinase 9 (Homo sapiens), sequence (P45984 whole entry, looked up): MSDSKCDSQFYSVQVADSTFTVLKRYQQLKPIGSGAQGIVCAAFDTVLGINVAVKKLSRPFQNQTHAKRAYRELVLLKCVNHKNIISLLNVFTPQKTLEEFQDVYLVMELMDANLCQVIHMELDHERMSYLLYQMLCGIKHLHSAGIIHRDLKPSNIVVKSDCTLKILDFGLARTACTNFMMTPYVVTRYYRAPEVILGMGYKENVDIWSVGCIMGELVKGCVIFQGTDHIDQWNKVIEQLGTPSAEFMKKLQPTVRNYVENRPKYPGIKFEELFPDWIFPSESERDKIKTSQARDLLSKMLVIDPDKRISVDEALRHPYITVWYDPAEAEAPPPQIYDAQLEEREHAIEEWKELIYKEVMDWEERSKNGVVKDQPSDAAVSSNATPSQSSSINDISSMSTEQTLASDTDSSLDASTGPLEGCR
Tyrosine-protein kinase BTK (Homo sapiens), sequence (Q06187 whole entry): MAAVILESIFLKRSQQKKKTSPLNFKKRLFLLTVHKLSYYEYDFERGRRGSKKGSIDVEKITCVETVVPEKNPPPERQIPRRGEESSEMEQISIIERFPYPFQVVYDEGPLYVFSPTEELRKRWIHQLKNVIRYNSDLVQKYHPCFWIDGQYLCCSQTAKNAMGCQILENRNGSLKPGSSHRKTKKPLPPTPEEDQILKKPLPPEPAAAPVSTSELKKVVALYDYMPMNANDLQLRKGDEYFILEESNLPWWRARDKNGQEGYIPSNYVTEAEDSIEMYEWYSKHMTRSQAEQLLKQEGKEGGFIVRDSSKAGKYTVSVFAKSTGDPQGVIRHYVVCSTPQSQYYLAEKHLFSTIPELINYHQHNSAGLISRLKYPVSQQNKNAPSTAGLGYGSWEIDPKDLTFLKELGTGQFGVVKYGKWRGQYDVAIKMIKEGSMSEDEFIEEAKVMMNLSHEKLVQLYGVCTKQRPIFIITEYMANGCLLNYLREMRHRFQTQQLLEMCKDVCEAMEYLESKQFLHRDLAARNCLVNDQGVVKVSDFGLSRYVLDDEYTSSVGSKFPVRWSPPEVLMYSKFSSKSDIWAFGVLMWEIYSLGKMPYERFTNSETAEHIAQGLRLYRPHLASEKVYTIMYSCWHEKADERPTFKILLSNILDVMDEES
Serine/threonine-protein kinase PAK 3 (Homo sapiens), sequence (O75914 whole entry, looked up): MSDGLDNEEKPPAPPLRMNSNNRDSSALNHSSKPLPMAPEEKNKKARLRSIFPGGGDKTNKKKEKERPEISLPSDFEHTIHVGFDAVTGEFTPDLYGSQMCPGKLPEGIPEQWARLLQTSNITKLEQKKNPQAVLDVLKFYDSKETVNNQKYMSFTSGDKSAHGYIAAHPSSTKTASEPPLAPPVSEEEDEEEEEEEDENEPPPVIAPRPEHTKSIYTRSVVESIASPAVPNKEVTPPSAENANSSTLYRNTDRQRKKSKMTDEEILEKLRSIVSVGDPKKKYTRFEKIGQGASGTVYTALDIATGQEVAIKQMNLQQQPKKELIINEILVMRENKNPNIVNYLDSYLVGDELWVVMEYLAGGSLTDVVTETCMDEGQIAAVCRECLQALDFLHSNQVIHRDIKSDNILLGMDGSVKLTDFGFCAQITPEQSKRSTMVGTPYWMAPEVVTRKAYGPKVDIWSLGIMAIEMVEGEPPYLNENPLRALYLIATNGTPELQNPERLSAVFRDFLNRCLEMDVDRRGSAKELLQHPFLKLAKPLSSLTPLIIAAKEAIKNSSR

For `O=C1c2ccc(Nc3ccc(F)cc3F)cc2CCc2ccc(OC[C@H](O)CO)cc21` [Skepinone-L], the Activity in assay [1] worked out at 94%; in assay [2], 111%; in assay [3], 107%; in assay [4], 100%; in assay [6], 100%; in assay [7], 90%. Further, the Activity amounted to 58% in assay [8]; 83% in assay [9]; 100% in [10]; 102% in [11]; 99% in assay [13]. Moreover, the IC50 (as a rule, the concentration at which inhibition is half-maximal) in [5] was “Not Active”; in [12], 50 nM.
